The record followed here is ChEMBL document CHEMBL1138898 (Bioorg Med Chem Lett, 2006).

The nature of assay [1]: Binding affinity to alpha-2delta calcium channel.
The test system of assay [2] is Mus musculus. The assay can be described thus: Protection of DBA/2 mouse against audiogenic-induced tonic seizure at 30 mg/kg, po after 1 hr. Format: functional.
For assay [3], the system named is Mus musculus. The assay can be described thus: Protection of DBA/2 mouse against audiogenic-induced tonic seizure at 30 mg/kg, po after 2 hrs. Format: functional.

Regarding `CCCC(CCC)CC(CN)c1nnn[nH]1` (stereo not given), the inhibition constant Ki in assay [1] worked out at 280 nM.
Same read-out and setting: the same measure for `NCCc1nnn[nH]1`: above 10000 nM; for `NCC(c1ccccc1)c1nnn[nH]1` (stereo not given): above 10000 nM; for `CC(C)C(CN)c1nnn[nH]1` (stereo not given): 130 nM.
Same read-out and setting: the result for `CC(C)CCC(CN)c1nnn[nH]1` (stereo not given) reads 210 nM.
The same measure, in the same setting: the same measure for `NCC(CCCCc1ccccc1)c1nnn[nH]1` (stereo not given): 130 nM.
Regarding `CC(C)(CN)c1nnn[nH]1`, the Ki in assay [1] was above 10000 nM.
On to `NCC(Cc1ccccc1)(Cc1ccccc1)c1nnn[nH]1`, for which the Ki in assay [1] was above 10000 nM.
The same measure, in the same setting: the result for `CC(CN)(Cc1ccccc1)c1nnn[nH]1` (stereo not given) reads 900 nM; that for `NCC(CCCCCc1ccccc1)c1nnn[nH]1` (stereo not given), 500 nM.
On the same count and under the same terms, the result for `CC(CN)(Cc1cccc(C(F)(F)F)c1)c1nnn[nH]1` (stereo not given) reads 160 nM; that for `NCC(CCc1ccccc1)c1nnn[nH]1` (stereo not given), 3100 nM.
For the compound `NCC(CC1CCCCC1)c1nnn[nH]1` (stereo not given), the Ki in assay [1] came to 570 nM.
Consider `CC(C)C1CC1(CN)c1nnn[nH]1` (stereo not given), for which the Ki in assay [1] stood at 190 nM.
For the compound `CCCCCCC(CN)c1nnn[nH]1` (stereo not given), in assay [1], the Ki was 330 nM.
Take `CCC(CC)C1CC1(CN)c1nnn[nH]1` (stereo not given): the Ki in assay [1] was determined as 4000 nM.
Still for that read-out and setting: the same measure for `NCC1(c2nnn[nH]2)CC12CCCCC2` (stereo not given): 33 nM.
The same measure, in the same setting: the same measure for `NCC(c1nnn[nH]1)C1CCCCC1` (stereo not given): 150 nM.
`NCC(Cc1ccccc1)c1nnn[nH]1` (stereo not given): the inhibitory constant (Ki) in assay [1] is 7600 nM.
In the case of `NCC(CCCc1ccccc1)c1nnn[nH]1` (stereo not given), the Ki in assay [1] is 2100 nM.
Still for that read-out and setting: the same measure for `CC(CN)(Cc1ccc(F)c(F)c1)c1nnn[nH]1` (stereo not given): 520 nM.
`CCC(CC)CC(CN)c1nnn[nH]1` (stereo not given): the Activity in the assay on Mus musculus [2] stood at 60%; with Mus musculus [3] it was 100%. Moreover, the Ki in assay [1] is 11 nM.
For `NCC(c1nnn[nH]1)C1CCCC1` (stereo not given), the Ki in assay [1] stood at 18 nM.
With `CC(C)CC(CN)c1nnn[nH]1` (stereo not given), the Activity was found to be 40% in the assay on Mus musculus [2] and 80% in the assay on Mus musculus [3]. Besides, in assay [1], the Ki came to 17 nM.
Turning to `CC(C)C[C@H](CN)CC(=O)O` [PREGABALIN], the Activity in the assay on Mus musculus [2] and in the assay with Mus musculus [3] was 100% throughout.

Usually Ki stands for a measure of affinity in units of concentration, obtained from inhibition or displacement.
